# Laboratory results: US20110207771A1, “N-(L-ALKYL-2-PHENYLETHYL)-CARBOXAMIDE DERIVATIVES AND USE THEREOF AS FUNGICIDES” (SYNGENTA CROP PROTECTION, INC., priority 2006, published 2011)
# Assays:
# Septoria tritici = experiment: Example B-13: action against Septoria tritici, fungal growth assay; type: cell-based; details: for fungal growth inhibition: 72 hrs
# Method: (§1) Example B-13: Action Against Septoria tritici—Fungal Growth Assay Conidia of the fungus from cryogenic storage were directly mixed into nutrient broth (PDB potato dextrose broth). After placing a (DMSO) solution of the test compounds into a microtiter plate (96-well format) the nutrient broth containing the fungal spores was added. The test plates were incubated at 24° C. and the inhibition of growth was determined photometrically after 72 hrs. The activity of a compound is expressed as fungal growth inhibition (0=no growth inhibition, ratings of 80% to 99% mean good to very good inhibition, 100%=complete inhibition).
# Pyrenophora teres = experiment: Example B-15: action against Pyrenophora teres (net blotch) on barley leaf segments; type: in vivo; details: 4 days after inoculation
# Method: Example B-15: Action Against Pyrenophora teres (Net Blotch) on Barley Barley leaf segments are placed on agar in multiwell plates (24-well format) and sprayed with test solutions (200 ppm, […], and 20 ppm of active ingredient). After drying, the leaf disks are inoculated with a spore suspension of the fungus. After appropriate incubation the activity of a compound is assessed 4 days after inoculation as preventive fungicidal activity (in %).
# [1] = system: Monographella nivalis (Fusarium nivale, Microdochium nivale); experiment: Example B-14: action against Monographella nivalis, fungal growth assay; type: cell-based; details: 72 hrs
# Method: Example B-14: Action Against Monographella nivalis (Anamorph: Fusarium nivale, Microdochium nivale; Snow Mould)—Fungal Growth Assay After placing a DMSO-solution (2% Dimethylsulfoxid, 0.025% Tween 20) of the test compounds into a microtiter plate (96-well format) the nutrient broth containing the fungal spores was added. 40.000 conidia/ml of the fungus from cryogenic storage were directly mixed into nutrient broth (PDB potato dextrose broth). The compounds were tested at a variety of application rates; these rates are shown in parts per million (ppm) in the table. The test plates were incubated at 24° C. and the inhibition of growth was measured photometrically after 72 hrs (0=no growth inhibition, ratings of 80% to 99% mean good to very good inhibition, 100%=complete inhibition).
# Botrytis cinerea = experiment: Example B-11: action against Botrytis cinerea, fungal growth assay; type: cell-based; details: 48-72 hrs
# Method: as §1, with “B-11:” for “B-13:”, “Botrytis cinerea—Fungal” for “Septoria tritici—Fungal”, “48-72” for “72”
# [2] = system: Mycosphaerella arachidis (Cercospora arachidicola); experiment: Example B-12: action against Mycosphaerella arachidis, fungal growth assay; type: cell-based; details: 6-7 days
# Method: as §1, with “B-12:” for “B-13:”, “Mycosphaerella arachidis (Early Leaf Spot of Groundnut; Cercospora arachidicola (Anamorph))—Fungal” for “Septoria tritici—Fungal”, “measured” for “determined”, “6-7 days.” for “72 hrs.”
smiles,measurement,setting,value
"CC(Cc1ccc(Cl)cc1Cl)NC(=O)c1cn(C)nc1C(F)F (stereo not shown) [Compound 1.197, 3-difluoromethyl-1-methyl-1H-pyrazole-4-carboxylic acid [2-(2,4-dichlorophenyl)-1-methyl-ethyl]-amide]",melting point,,157 °C
"CC(Cc1ccc(Cl)cc1Cl)NC(=O)c1cn(C)nc1C(F)F (single isomer, unassigned; (-)) [(−)-3-difluoromethyl-1-methyl-1H-pyrazole-4-carboxylic acid ] [(−)-3-difluoromethyl-1-methyl-1H-pyrazole-4-carboxylic acid [2-(2,4-dichlorophenyl)-1-methyl-ethyl]-amide]",fungal growth inhibition,Septoria tritici; 2 ppm,0%
same,fungal growth inhibition,Septoria tritici; 6 ppm,80%
same,fungal growth inhibition,Septoria tritici; 20 ppm,100%
same,preventive fungicidal activity,Pyrenophora teres; 20 ppm,80%
same,preventive fungicidal activity,Pyrenophora teres; 60 ppm,100%
same,preventive fungicidal activity,Pyrenophora teres; 200 ppm,100%
same,inhibition of growth,[1]; 2 ppm,0%
same,inhibition of growth,[1]; 6 ppm,0%
same,inhibition of growth,[1]; 20 ppm,20%
same,fungal growth inhibition,Botrytis cinerea; 2 ppm,0%
same,fungal growth inhibition,Botrytis cinerea; 6 ppm,20%
same,fungal growth inhibition,Botrytis cinerea; 20 ppm,20%
same,fungal growth inhibition,[2]; 2 ppm,0%
same,fungal growth inhibition,[2]; 6 ppm,50%
same,fungal growth inhibition,[2]; 20 ppm,80%
"CC(Cc1ccc(Cl)cc1Cl)NC(=O)c1cn(C)nc1C(F)F (single isomer, unassigned; (+)) [(+)-3-difluoromethyl-1-methyl-1H-pyrazole-4-carboxylic acid ] [(+)-3-difluoromethyl-1-methyl-1H-pyrazole-4-carboxylic acid [2-(2,4-dichlorophenyl)-1-methyl-ethyl]-amide]",preventive fungicidal activity,Pyrenophora teres; 20 ppm,100%
same,preventive fungicidal activity,Pyrenophora teres; 60 ppm,100%
same,preventive fungicidal activity,Pyrenophora teres; 200 ppm,100%
same,inhibition of growth,[1]; 2 ppm,100%
same,inhibition of growth,[1]; 6 ppm,100%
same,inhibition of growth,[1]; 20 ppm,100%
same,fungal growth inhibition,Botrytis cinerea; 2 ppm,80%
same,fungal growth inhibition,Botrytis cinerea; 6 ppm,100%
same,fungal growth inhibition,Botrytis cinerea; 20 ppm,100%
"Cn1cc(C(=O)NC2(Cc3ccc(Cl)cc3Cl)CC2)c(C(F)F)n1 [Compound 1.231, 3-difluoromethyl-1-methyl-1H-pyrazole-4-carboxylic acid [1-(2,4-dichlorobenzyl)-cyclopropyl]-amide]",melting point,,165 to 168 °C
"CC(Cc1ccc(Br)cc1Cl)NC(=O)c1cn(C)nc1C(F)F (stereo not shown) [Compound 1.451, 3-difluoromethyl-1-methyl-1H-pyrazole-4-carboxylic acid [2-(4-bromo-2-chlorophenyl)-1-methyl-ethyl]-amide]",melting point,,183 to 184 °C
"CC(Cc1ccc(Cl)cc1Cl)NC(=O)c1cn(C)nc1C(F)F (single isomer, unassigned; (+)) [(+)-3-difluoromethyl-1-methyl-1H-pyrazole-4-carboxylic acid [2-(2,4-dichlorophenyl)-1-methyl-ethyl]-amide]",inhibition at 6 ppm,"Septoria tritici; Zymoseptoria tritici, 72 h, 6 ppm",100%
same,inhibition at 20 ppm,"Septoria tritici; Zymoseptoria tritici, 72 h, 20 ppm",100%
same,inhibition at 20 ppm,"[2]; Mycosphaerella arachidis, 20 ppm",100%
"CC(Cc1ccc(-c2ccc(Cl)cc2)cc1Cl)NC(=O)c1cn(C)nc1C(F)F (stereo not shown) [Compound 1.462, 3-difluoromethyl-1-methyl-1H-pyrazole-4-carboxylic acid [2-(3,4′-dichlorobiphenyl-4-yl)-1-methyl-ethyl]-amide]",melting point,,96 to 98 °C
